Laboratory results as given in patent publication US12077503B2, “Substituted cyclic amides and their use as herbicides” (FMC CORPORATION, priority 2015, dated 2024).

Tests used:
Assay type in all cases: in vivo
[1] = test system: Kochia (Kochia scoparia); assay: Test A preemergence; settings: Bassia scoparia, pre-emergence, 240 h, preemergence, read-out: Plant response rating, Kochia; for pest or weed control at 125 g/ha: 125 g ai/ha, visual rating after approx. 10 d, 0 to 100 scale where 0 is no effect and 100 is complete control; for pest or weed control at 500 g/ha: 500 g ai/ha, 0 to 100 scale, 0 = no effect, 100 = complete control
Method in brief: (§1)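 Visual injury scores from 0, no effect, to 100, complete control, were assigned versus untreated controls roughly 10 d after treatment in the greenhouse. Test chemicals, formulated with surfactant in a non-phytotoxic solvent, were applied to planted seeds as a preemergence soil spray or postemergence to one- to two-leaf plants 2 to 10 cm tall, in loam–sand soil.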

[2] = test system: barnyardgrass (Echinochloa crus-galli); assay: Test A preemergence; settings: Echinochloa crus-galli, pre-emergence, 240 h, preemergence, read-out: Plant response rating, Barnyardgrass; for pest or weed control at 125 g/ha: 125 g ai/ha, visual rating after approx. 10 d, 0 to 100 scale where 0 is no effect and 100 is complete control; for pest or weed control at 500 g/ha: 500 g ai/ha, 0 to 100 scale, 0 = no effect, 100 = complete control
Method in brief: as §1

[3] = test system: pigweed (Amaranthus retroflexus); assay: Test A preemergence; settings: Amaranthus retroflexus, pre-emergence, 240 h, preemergence, read-out: Plant response rating, Pigweed; for pest or weed control at 125 g/ha: 125 g ai/ha, visual rating after approx. 10 d, 0 to 100 scale where 0 is no effect and 100 is complete control; for pest or weed control at 500 g/ha: 500 g ai/ha, 0 to 100 scale, 0 = no effect, 100 = complete control
[4] = test system: ragweed (common ragweed, Ambrosia elatior); assay: Test A preemergence; settings: Ambrosia artemisiifolia, pre-emergence, 240 h, preemergence, read-out: Plant response rating, Ragweed; for pest or weed control at 125 g/ha: 125 g ai/ha, visual rating after approx. 10 d, 0 to 100 scale where 0 is no effect and 100 is complete control; for pest or weed control at 500 g/ha: 500 g ai/ha, 0 to 100 scale, 0 = no effect, 100 = complete control
Method in brief: as §1

[5] = test system: ryegrass, Italian (Italian ryegrass, Lolium multiflorum); assay: Test A preemergence; settings: Lolium multiflorum, pre-emergence, 240 h, preemergence, read-out: Plant response rating, Ryegrass, Italian; for pest or weed control at 125 g/ha: 125 g ai/ha, visual rating after approx. 10 d, 0 to 100 scale where 0 is no effect and 100 is complete control; for pest or weed control at 500 g/ha: 500 g ai/ha, 0 to 100 scale, 0 = no effect, 100 = complete control
Method in brief: as §1

[6] = test system: Galium (catchweed bedstraw, Galium aparine); assay: Test A postemergence; settings: Galium, post-emergence, 240 h, 125 g ai/ha, postemergence; visual injury after approximately 10 d; 0 to 100 scale (0 no effect, 100 complete control); read-out: Plant response rating, Galium
Method in brief: as §1

[7] = test system: Kochia (Kochia scoparia); assay: Test A postemergence; settings: Bassia scoparia, post-emergence, 240 h, 125 g ai/ha, postemergence; visual injury after approximately 10 d; 0 to 100 scale (0 no effect, 100 complete control); read-out: Plant response rating, Kochia
Method in brief: as §1

[8] = test system: barnyardgrass (Echinochloa crus-galli); assay: Test A postemergence; settings: Echinochloa crus-galli, post-emergence, 240 h, 125 g ai/ha, postemergence; visual injury after approximately 10 d; 0 to 100 scale (0 no effect, 100 complete control); read-out: Plant response rating, Barnyardgrass
Method in brief: as §1

[9] = test system: blackgrass (Alopecurus myosuroides); assay: Test A postemergence; settings: Alopecurus myosuroides, post-emergence, 240 h, 125 g ai/ha, postemergence; visual injury after approximately 10 d; 0 to 100 scale (0 no effect, 100 complete control); read-out: Plant response rating, Blackgrass
Method in brief: as §1

[10] = test system: corn (Zea mays); assay: Test A postemergence; settings: Zea mays, post-emergence, 240 h, 125 g ai/ha, postemergence; visual injury after approximately 10 d; 0 to 100 scale (0 no effect, 100 complete control)
Method in brief: as §1

[11] = test system: giant foxtail (Setaria faberii); assay: Test A postemergence; settings: Setaria faberi, post-emergence, 240 h, 125 g ai/ha, postemergence; visual injury after approximately 10 d; 0 to 100 scale (0 no effect, 100 complete control); read-out: Plant response rating, Foxtail, Giant
Method in brief: as §1

[12] = test system: pigweed (Amaranthus retroflexus); assay: Test A postemergence; settings: Amaranthus retroflexus, post-emergence, 240 h, 125 g ai/ha, postemergence; visual injury after approximately 10 d; 0 to 100 scale (0 no effect, 100 complete control); read-out: Plant response rating, Pigweed
Method in brief: as §1

[13] = test system: ragweed (common ragweed, Ambrosia elatior); assay: Test A postemergence; settings: Ambrosia artemisiifolia, post-emergence, 240 h, 125 g ai/ha, postemergence; visual injury after approximately 10 d; 0 to 100 scale (0 no effect, 100 complete control); read-out: Plant response rating, Ragweed
Method in brief: as §1

[14] = test system: ryegrass, Italian (Italian ryegrass, Lolium multiflorum); assay: Test A postemergence; settings: Lolium multiflorum, post-emergence, 240 h, 125 g ai/ha, postemergence; visual injury after approximately 10 d; 0 to 100 scale (0 no effect, 100 complete control); read-out: Plant response rating, Ryegrass, Italian
Method in brief: as §1

[15] = test system: wheat (Triticum aestivum); assay: Test A postemergence; settings: Triticum aestivum, post-emergence, 240 h, 125 g ai/ha, postemergence; visual injury after approximately 10 d; 0 to 100 scale (0 no effect, 100 complete control); read-out: Plant response rating, Wheat
Method in brief: as §1

Compound: CN1C[C@H](c2ccc(C(F)(F)F)cc2)[C@@H](C(=O)Nc2ccc(F)c(F)c2F)C1=O [Compound 745]
- pest or weed control at 125 g/ha [1]: 90%
- pest or weed control at 500 g/ha [1]: 90%
- pest or weed control at 125 g/ha [2]: 90%
- pest or weed control at 500 g/ha [2]: 90%
- pest or weed control at 125 g/ha [3]: 80%
- pest or weed control at 500 g/ha [3]: 90%
- pest or weed control at 125 g/ha [4]: 80%
- pest or weed control at 500 g/ha [4]: 80%
- pest or weed control at 125 g/ha [5]: 70%
- pest or weed control at 500 g/ha [5]: 90%
- pest or weed control at 125 g/ha [6]: 60%
- pest or weed control at 125 g/ha [7]: 70%
- pest or weed control at 125 g/ha [8]: 90%
- pest or weed control at 125 g/ha [9]: 40%
- Corn plant response rating (crop injury, 0 = no effect, 100 = complete kill) at 125 g/ha [10]: 90%
- pest or weed control at 125 g/ha [11]: 90%
- pest or weed control at 125 g/ha [12]: 70%
- pest or weed control at 125 g/ha [13]: 40%
- pest or weed control at 125 g/ha [14]: 50%
- plant injury at 125 g/ha [15]: 60%

Compound: CS(=O)(=O)c1ccccc1NC(=O)[C@H]1C(=O)NC[C@@H]1c1cccc2c1OC(F)(F)O2 [Compound 753]
- pest or weed control at 125 g/ha [1]: 20%
- pest or weed control at 500 g/ha [1]: 20%
- pest or weed control at 125 g/ha [2]: 70%
- pest or weed control at 500 g/ha [2]: 100%
- pest or weed control at 125 g/ha [3]: 0%
- pest or weed control at 500 g/ha [3]: 0%
- pest or weed control at 125 g/ha [4]: 0%
- pest or weed control at 500 g/ha [4]: 0%
- pest or weed control at 125 g/ha [5]: 0%
- pest or weed control at 500 g/ha [5]: 20%
- pest or weed control at 125 g/ha [6]: 0%
- pest or weed control at 125 g/ha [7]: 0%
- pest or weed control at 125 g/ha [8]: 50%
- pest or weed control at 125 g/ha [9]: 0%
- Corn plant response rating (crop injury, 0 = no effect, 100 = complete kill) at 125 g/ha [10]: 0%
- pest or weed control at 125 g/ha [11]: 0%
- pest or weed control at 125 g/ha [12]: 0%
- pest or weed control at 125 g/ha [13]: 0%
- pest or weed control at 125 g/ha [14]: 0%
- plant injury at 125 g/ha [15]: 0%

Compound: Cc1ccc([C@H]2CNC(=S)[C@@H]2C(=O)Nc2cccc(F)c2C)cc1C [Compound 764]
- pest or weed control at 125 g/ha [1]: 0%
- pest or weed control at 500 g/ha [1]: 0%
- pest or weed control at 125 g/ha [2]: 100%
- pest or weed control at 500 g/ha [2]: 100%
- pest or weed control at 125 g/ha [3]: 0%
- pest or weed control at 500 g/ha [3]: 0%
- pest or weed control at 125 g/ha [4]: 0%
- pest or weed control at 500 g/ha [4]: 0%
- pest or weed control at 125 g/ha [5]: 0%
- pest or weed control at 125 g/ha [6]: 0%
- pest or weed control at 125 g/ha [7]: 0%
- pest or weed control at 125 g/ha [8]: 80%
- pest or weed control at 125 g/ha [9]: 0%
- Corn plant response rating (crop injury, 0 = no effect, 100 = complete kill) at 125 g/ha [10]: 0%
- pest or weed control at 125 g/ha [11]: 0%
- pest or weed control at 125 g/ha [12]: 0%
- pest or weed control at 125 g/ha [13]: 0%
- pest or weed control at 125 g/ha [14]: 30%
- plant injury at 125 g/ha [15]: 0%

Compound: CSc1ccccc1NC(=O)[C@H]1C(=S)NC[C@@H]1c1ccc(C)c(C)c1 [Compound 766]
- pest or weed control at 125 g/ha [1]: 0%
- pest or weed control at 500 g/ha [1]: 0%
- pest or weed control at 125 g/ha [2]: 70%
- pest or weed control at 500 g/ha [2]: 90%
- pest or weed control at 125 g/ha [3]: 0%
- pest or weed control at 500 g/ha [3]: 0%
- pest or weed control at 125 g/ha [4]: 0%
- pest or weed control at 500 g/ha [4]: 0%
- pest or weed control at 125 g/ha [5]: 0%
- pest or weed control at 125 g/ha [6]: 0%
- pest or weed control at 125 g/ha [7]: 0%
- pest or weed control at 125 g/ha [8]: 10%
- pest or weed control at 125 g/ha [9]: 0%
- Corn plant response rating (crop injury, 0 = no effect, 100 = complete kill) at 125 g/ha [10]: 0%
- pest or weed control at 125 g/ha [11]: 0%
- pest or weed control at 125 g/ha [12]: 0%
- pest or weed control at 125 g/ha [13]: 0%
- pest or weed control at 125 g/ha [14]: 0%
- plant injury at 125 g/ha [15]: 0%

Compound: COc1cc([C@H]2CN(C)C(=O)[C@@H]2C(=O)Nc2ccccc2F)ccc1C(F)(F)F [Compound 768]
- pest or weed control at 125 g/ha [1]: 60%
- pest or weed control at 500 g/ha [1]: 70%
- pest or weed control at 125 g/ha [2]: 90%
- pest or weed control at 500 g/ha [2]: 90%
- pest or weed control at 125 g/ha [3]: 0%
- pest or weed control at 500 g/ha [3]: 20%
- pest or weed control at 125 g/ha [4]: 0%
- pest or weed control at 500 g/ha [4]: 0%
- pest or weed control at 125 g/ha [5]: 0%
- pest or weed control at 125 g/ha [6]: 30%
- pest or weed control at 125 g/ha [7]: 0%
- pest or weed control at 125 g/ha [8]: 70%
- pest or weed control at 125 g/ha [9]: 0%
- Corn plant response rating (crop injury, 0 = no effect, 100 = complete kill) at 125 g/ha [10]: 30%
- pest or weed control at 125 g/ha [11]: 80%
- pest or weed control at 125 g/ha [12]: 0%
- pest or weed control at 125 g/ha [13]: 0%
- pest or weed control at 125 g/ha [14]: 30%
- plant injury at 125 g/ha [15]: 0%
